Laboratory results taken from the NIST ThermoML archive (doi:10.1021/je500067f).

Conditions: 101.33 kPa, Liquid; for viscosity: Capillary tube (Ostwald / Ubbelohde) method; for mass density: Pycnometric method

C[S+](C)[O-] [dimethyl sulfoxide]
Conditions | mass density [kg/m3] | viscosity [mPa·s]
298.15 K | 1095.2 | 2
303.15 K | 1090.6 | 1.8
308.15 K | 1085.9 | 1.61
313.15 K | 1081.3 | 1.44
318.15 K | 1075.3 | 1.33
